The values below come from US20020164574A1 (priority 2001, published 2002).

The subject of experiment [1] is S. cerevisiae. Kind of experiment: YT MicroPlate carbon utilization test with fungicide treatment. Particulars: sub-inhibitory concentration of fungicide; 48 hours incubation; YT MicroPlate (Biolog); FIG. 2. In kind it is cell-based. Here is the method:
The YT microplate test panel (Biolog, Inc.) is designed as a tool for identifying a broad range of yeasts by their carbon utilization patterns. Initial tests were performed with S. cerevisiae in these plates with and without the addition of various fungicides. Very simply, yeast cells are prepared as a water suspension as per the YT microplate instructions. Prior to loading the plates with cells, a fungicide or solvent control is added to the water suspension. The cells are immediately loaded onto a plate. The plates were incubated at 26° C. as per instructions, and OD490 and OD750 readings were obtained at various time points during incubation. The results of fungicide treated samples and controls are compared. Differences in well growth that is altered relative to the control is recorded and is presumed to relate to the mode-of-action of the chemical.
A test in the YT microplate was set up using the sub-inhibitory concentration of three fungicides for which a putative MOA is known. Two fungicides, benomyl and fenpropimorph are predicted to have no effect on carbon utilization, but the third, fenpiclonil, is predicted to affect glucose uptake and utilization. The experiments were performed as described.

In experiment [2] the test system is M. grisea and S. cerevisiae. It counts as cell-based. Conditions: OD600; rich liquid media; two fold dilution series; species not given.

Structures are written as SMILES. “Also recorded” adds a separate entry of the source.

As for `CCCCNC(=O)n1c(NC(=O)OC)nc2ccccc21` [benomyl], the “utilization of carbon sources, fungicide treatment compared to controls” value in experiment [1] is listed as “did not result in any significant differences from the controls”.

As for `N#Cc1c[nH]cc1-c1cccc(Cl)c1Cl` [fenpiclonil], in experiment [1], the “utilization of carbon sources, fungicide treatment compared to controls” value is “decreased utilization of glucose, raffinose and sucrose; also recorded: significant changes in the utilization of glucose, raffinose, and sucrose”. Still for that read-out and setting: next, `CC(Cc1ccc(C(C)(C)C)cc1)CN1C[C@@H](C)O[C@@H](C)C1` (some centres unmarked) [fenpropimorph]: “did not result in any significant differences from the controls”.

As to `O=C1CCc2cccc3c2N1CC3` [pyroquilon], in experiment [2], the “growth inhibition by spectrophotometric analysis” value was “no growth inhibition”. The same measure, in the same setting: next, `Cc1cccc2sc3nncn3c12` [tricyclazole]: “no growth inhibition”.
